Reference: article PMC3392217, “BmK-YA, an Enkephalin-Like Peptide in Scorpion Venom” (PLoS ONE, 2012)
No end group written: not given here.

Tests used:
Format in all cases: cell-based
[1] = target: T1, human opioid receptor μ (Homo sapiens, UniProt P35372); assay: Ca2+ response monitored by FLIPR, μ-expressing cells; details: μ-expressing HEK293T cells
T1 construct: expressed in transfected cells
Method: (§1) The assay was performed as reported earlier.
(§2) Potency is determined by EC50.

[2] = target: T2, human opioid receptor κ (Homo sapiens, UniProt P41145); assay: Ca2+ response monitored by FLIPR, κ-expressing cells; details: κ-expressing HEK293T cells
T2 construct: expressed in transfected cells
T2 sequence (P41145 whole entry): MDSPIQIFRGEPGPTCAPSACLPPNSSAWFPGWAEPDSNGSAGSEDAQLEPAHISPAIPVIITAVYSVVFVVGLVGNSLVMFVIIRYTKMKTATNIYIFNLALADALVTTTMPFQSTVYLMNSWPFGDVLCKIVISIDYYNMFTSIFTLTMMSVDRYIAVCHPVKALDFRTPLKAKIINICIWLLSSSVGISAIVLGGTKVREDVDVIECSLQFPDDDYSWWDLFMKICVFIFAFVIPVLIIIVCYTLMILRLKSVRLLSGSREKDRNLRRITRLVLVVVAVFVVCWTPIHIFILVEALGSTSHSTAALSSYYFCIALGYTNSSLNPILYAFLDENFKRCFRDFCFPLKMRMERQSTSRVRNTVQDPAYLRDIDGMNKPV
Method: as §1, §2

[3] = target: T3, human opioid receptor δ (Homo sapiens, UniProt P41143); assay: Ca2+ response monitored by FLIPR, δ-expressing cells
T3 construct: expressed in transfected cells
T3 sequence (P41143 whole entry): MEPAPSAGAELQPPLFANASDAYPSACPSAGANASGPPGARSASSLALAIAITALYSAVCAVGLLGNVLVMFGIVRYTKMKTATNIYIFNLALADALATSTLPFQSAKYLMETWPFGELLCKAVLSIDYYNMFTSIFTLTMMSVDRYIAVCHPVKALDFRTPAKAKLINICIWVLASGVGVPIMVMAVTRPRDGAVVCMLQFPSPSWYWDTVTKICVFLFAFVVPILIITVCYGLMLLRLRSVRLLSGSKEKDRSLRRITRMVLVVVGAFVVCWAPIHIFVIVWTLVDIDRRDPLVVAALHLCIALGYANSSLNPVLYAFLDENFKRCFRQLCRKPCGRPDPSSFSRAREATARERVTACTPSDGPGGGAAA
Method: as §1, §2

[4] = Gqαi3 cotransfected, Fluo-4 AM, FLIPR, mean±SE, n = 3, read-out: EC50 (intracellular Ca2+ mobilization)

T1 sequence (P35372 whole entry): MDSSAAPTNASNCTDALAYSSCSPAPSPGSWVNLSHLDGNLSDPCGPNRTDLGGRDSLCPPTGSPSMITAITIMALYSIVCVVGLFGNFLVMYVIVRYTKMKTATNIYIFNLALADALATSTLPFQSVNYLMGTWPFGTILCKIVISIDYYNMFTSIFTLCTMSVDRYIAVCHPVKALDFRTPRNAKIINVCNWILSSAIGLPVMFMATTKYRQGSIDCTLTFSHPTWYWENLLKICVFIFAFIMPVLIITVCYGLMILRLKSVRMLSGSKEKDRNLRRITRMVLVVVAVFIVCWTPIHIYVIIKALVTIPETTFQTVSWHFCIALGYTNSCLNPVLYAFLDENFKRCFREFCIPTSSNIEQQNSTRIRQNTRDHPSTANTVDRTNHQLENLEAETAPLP

YGGHMNPA [His^4-BmK-YA]
Agonist activity, in words ([1]; 1 nM to 50 µM): no activity was detected
Agonist activity, in words ([2]; 1 nM to 50 µM): no activity was detected
Agonist activity, in words ([3]; δ-expressing HEK293T cells, 1 nM to 50 µM): no activity was detected

YGGYMNPA-NH2 [BmK-YA]
EC50 [1, 4]: 17 µM
EC50 [2, 4]: 30 ± 0.5 µM
Selectivity to the δ-subtype over κ (times) ([3]; δ versus κ, FLIPR EC50): 12 times
Selectivity to the δ-subtype over μ (times) ([3]; δ versus μ, FLIPR EC50): 6.8 times
EC50 ([3]; δ-expressing HEK293T cells, Gqαi3 cotransfected, Fluo-4 AM, FLIPR, mean±SE, n = 3, read-out: EC50 (intracellular Ca2+ mobilization)): 2.5 µM
